Experimental data published in ChEMBL document CHEMBL1201862, “PubChem BioAssay data set” (2004).
Calls of active or inactive are those of the source.

Key:
[1] = A cytotoxicity screen of small molecule inhibitors of the PhoP region in Salmonella typhi identified in the primary screen. [Related pubchem assays: 1850, 1864, 1985 ]; type: functional
[2] = target: Aryl hydrocarbon receptor (Homo sapiens, UniProt P35869); test: Luminescence-based cell-based high throughput dose response assay for activators of the Aryl Hydrocarbon Receptor (AHR). [Related pubchem assays: 2796 (Primary screen (AHR activators in singlicate)), 2845 (Confirmation screen (AHR activators in triplicate)), 434939 (Counterscreen (PXR activators in triplicate)), 2804 (Summary (AHR activators))]; type: ADME
[3] = target: Luciferin 4-monooxygenase (Photinus pyralis, UniProt P08659); test: inhibition of purified Photinus pyralis luciferase – biochemical, luminescence, dose response (AID 1891)
[4] = Luminescence Cell-Based Dose Confirmation HTS to Identify Inhibitors of Platelet Dense Granule Release. [Related pubchem assays: 1663 (Primary HTS), 1678 (Summary of Project)]; type: functional
[5] = Fluorescence Cell-Based Dose Response to Identify Inhibitors of Thrombin Receptor-Activating Peptide SFLLRN-Mediated P-Selectin Induction on Platelets. [Related pubchem assays: 1663 (Primary HTS), 1889 (retest at dose ), 1891 (counterscreen), 1678 (Project Summary)]; type: functional
[6] = growth inhibition of yeast DHODH-expressing 3D7 parasites – SYBR Green, dry powder samples, dose response (AID 1159570); type: functional, cell-based;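 also: parasite growth measured after 72 hours of compound exposure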
[7] = P. falciparum Dd2 growth inhibitors, dose response, SYBR Green, cherry-picked samples (AID 1159567); type: functional, cell-based
[8] = Dd2 malaria parasite growth inhibition potency – SYBR Green, dry powder samples, dose response (AID 1159566); type: functional, cell-based;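 also: potency for growth inhibition with lower SYBR green DNA signal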
[9] = Plasmodium falciparum Dd2 Sybr green parasite growth Measured in Cell-Based and Microorganism Combination System Using Plate Reader - 2153-01_Inhibitor_Dose_DryPowder_Activity_Set3.; type: functional
[10] = growth inhibition of PfATP4-mutant resistant parasites – NITD609-resistant line, SYBR Green, dry powder, dose response (AID 1159571); type: functional, cell-based;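 also: parasites synchronized at ring stage by sorbitol before testing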
[11] = HPDE-C7 pancreatic duct cell viability loss – fluorescence, HTS (AID 430); type: functional, cell-based; details: Homo sapiens
[12] = viability loss of HPDE-C7K cells – cell-based, fluorescence, HTS, primary screen (AID 431); type: functional; details: Homo sapiens
[13] = target: T1, Estrogen receptor (Homo sapiens, UniProt P03372);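 also: potency for inhibiting coactivator peptide recruitment to the receptor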
T1 sequence (P03372 whole entry): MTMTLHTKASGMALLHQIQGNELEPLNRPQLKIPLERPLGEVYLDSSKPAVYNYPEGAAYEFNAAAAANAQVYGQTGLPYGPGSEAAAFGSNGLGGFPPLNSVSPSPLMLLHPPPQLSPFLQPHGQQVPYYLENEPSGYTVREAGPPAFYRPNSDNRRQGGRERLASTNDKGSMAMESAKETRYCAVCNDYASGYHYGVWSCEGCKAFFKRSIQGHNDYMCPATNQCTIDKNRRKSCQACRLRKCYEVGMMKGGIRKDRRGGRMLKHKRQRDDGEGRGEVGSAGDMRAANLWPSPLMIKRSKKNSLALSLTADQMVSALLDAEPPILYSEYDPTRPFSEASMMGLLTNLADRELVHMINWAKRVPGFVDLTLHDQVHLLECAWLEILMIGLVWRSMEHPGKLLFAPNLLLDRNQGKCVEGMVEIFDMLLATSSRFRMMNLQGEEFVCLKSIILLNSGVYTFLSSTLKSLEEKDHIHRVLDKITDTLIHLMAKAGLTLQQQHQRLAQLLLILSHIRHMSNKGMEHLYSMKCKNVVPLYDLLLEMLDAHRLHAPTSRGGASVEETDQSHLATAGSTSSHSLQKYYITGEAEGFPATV

[14] = target: T2, Protein skinhead-1 (Caenorhabditis elegans, UniProt P34707); type: functional
T2 sequence (P34707 whole entry): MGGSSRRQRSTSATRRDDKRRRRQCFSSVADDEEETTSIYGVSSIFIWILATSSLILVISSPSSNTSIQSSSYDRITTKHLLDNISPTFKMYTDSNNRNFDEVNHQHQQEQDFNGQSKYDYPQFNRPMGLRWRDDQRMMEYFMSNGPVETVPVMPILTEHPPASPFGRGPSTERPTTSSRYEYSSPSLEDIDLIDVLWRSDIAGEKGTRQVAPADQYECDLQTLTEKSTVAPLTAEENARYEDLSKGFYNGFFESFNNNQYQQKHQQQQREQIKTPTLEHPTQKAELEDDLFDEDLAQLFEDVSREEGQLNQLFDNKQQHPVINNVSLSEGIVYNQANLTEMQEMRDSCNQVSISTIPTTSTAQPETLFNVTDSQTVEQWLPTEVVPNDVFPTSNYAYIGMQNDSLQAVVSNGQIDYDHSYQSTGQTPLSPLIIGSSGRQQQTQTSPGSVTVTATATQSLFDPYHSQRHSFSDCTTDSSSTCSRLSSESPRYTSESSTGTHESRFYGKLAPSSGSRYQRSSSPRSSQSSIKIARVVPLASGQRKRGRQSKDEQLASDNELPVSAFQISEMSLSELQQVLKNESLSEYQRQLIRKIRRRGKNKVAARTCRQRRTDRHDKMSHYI

[15] = M. tuberculosis H37Rv growth inhibitors, H37Rv strain (AID 1626); type: functional
[16] = target: Large T antigen (Simian virus 40, UniProt P03070); type: functional, Betapolyomavirus macacae;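 also: Confirmatory-stage PubChem screen for compounds that inhibit SV40 T antigen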
[17] = target: T3, Replicative DNA helicase DnaB (Mycobacterium tuberculosis, UniProt P9WMR3); test: DnaB intein splicing inhibitors, dose response, biochemical, cell-free fluorescence (AID 449749); type: functional
T3 sequence (P9WMR3 whole entry): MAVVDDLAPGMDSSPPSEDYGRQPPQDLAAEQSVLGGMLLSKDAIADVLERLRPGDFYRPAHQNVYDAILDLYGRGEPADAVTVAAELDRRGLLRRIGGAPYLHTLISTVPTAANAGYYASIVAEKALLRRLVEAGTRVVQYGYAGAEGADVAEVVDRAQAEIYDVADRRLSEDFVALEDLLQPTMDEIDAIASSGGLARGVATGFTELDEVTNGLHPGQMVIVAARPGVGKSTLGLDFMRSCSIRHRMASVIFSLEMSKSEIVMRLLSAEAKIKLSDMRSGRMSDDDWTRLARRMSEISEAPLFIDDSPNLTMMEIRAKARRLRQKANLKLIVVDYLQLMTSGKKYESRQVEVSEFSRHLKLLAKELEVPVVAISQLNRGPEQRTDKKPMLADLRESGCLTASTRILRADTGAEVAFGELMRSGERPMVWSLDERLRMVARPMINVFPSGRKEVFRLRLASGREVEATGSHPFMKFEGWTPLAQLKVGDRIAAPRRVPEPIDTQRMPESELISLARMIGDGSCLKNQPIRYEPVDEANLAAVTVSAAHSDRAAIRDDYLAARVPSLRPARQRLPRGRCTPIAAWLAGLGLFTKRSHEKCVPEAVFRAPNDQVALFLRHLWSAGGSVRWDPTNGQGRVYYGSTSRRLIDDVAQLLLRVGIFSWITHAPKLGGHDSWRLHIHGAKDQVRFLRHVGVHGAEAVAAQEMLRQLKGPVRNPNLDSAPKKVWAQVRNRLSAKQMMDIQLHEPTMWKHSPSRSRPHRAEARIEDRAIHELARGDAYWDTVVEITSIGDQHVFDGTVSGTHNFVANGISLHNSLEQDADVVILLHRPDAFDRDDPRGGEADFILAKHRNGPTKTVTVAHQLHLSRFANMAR

[18] = target: T4, Protein RecA (Mycobacterium tuberculosis, UniProt P9WHJ3); test: Fluorescence Cell-Free Homogeneous Dose Retest to Identify Inhibitors of RecA-Intein Splicing Activity. [Related pubchem assays (depositor defined):AID2097, AID2223, AID489010, AID492950]; type: functional
T4 sequence (P9WHJ3 whole entry): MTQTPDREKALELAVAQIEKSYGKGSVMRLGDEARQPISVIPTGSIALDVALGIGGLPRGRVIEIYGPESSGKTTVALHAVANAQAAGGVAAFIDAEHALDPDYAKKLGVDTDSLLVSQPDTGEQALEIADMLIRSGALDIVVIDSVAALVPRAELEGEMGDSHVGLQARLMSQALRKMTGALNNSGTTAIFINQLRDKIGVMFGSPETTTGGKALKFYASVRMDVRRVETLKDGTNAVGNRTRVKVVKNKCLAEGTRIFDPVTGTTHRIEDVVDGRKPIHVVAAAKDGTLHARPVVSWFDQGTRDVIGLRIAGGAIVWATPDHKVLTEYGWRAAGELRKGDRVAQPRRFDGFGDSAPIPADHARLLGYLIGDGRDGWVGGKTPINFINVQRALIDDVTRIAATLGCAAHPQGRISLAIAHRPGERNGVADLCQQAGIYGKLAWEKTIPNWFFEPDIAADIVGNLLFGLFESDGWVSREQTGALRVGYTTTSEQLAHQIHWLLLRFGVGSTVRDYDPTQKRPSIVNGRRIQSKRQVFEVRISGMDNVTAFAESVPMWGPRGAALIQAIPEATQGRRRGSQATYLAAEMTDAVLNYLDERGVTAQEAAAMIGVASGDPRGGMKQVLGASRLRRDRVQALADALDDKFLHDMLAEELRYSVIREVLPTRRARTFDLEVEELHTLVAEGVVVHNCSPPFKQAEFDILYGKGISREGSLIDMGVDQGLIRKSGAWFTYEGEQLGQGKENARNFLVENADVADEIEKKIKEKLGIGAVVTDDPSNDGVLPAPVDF

[19] = glucagon-like peptide-1 release potency in STC-1, concentration-response, half-maximal inhibitory concentration in the STC-1 line (AID 1117345); type: functional, cell-based
[20] = Potency on glucagon-like peptide 1 release, dose-response in NCI-H716 cell line, half maximal inhibitory concentration (AID 1117344); type: functional, cell-based
[21] = toxicity to human HepG2 hepatoma cells – cell-based, plate reader, dry powder samples, cytotoxicity control, dose response (AID 1159569); type: functional;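 also: inhibitor potency with signal falling toward the positive control level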
[22] = Dd2 parasite growth inhibition in erythrocytes – SYBR Green, dry powder samples, set 9, dose response (AID 1159568); type: functional, cell-based

Chain of Luciferin 4-monooxygenase (P08659 whole entry): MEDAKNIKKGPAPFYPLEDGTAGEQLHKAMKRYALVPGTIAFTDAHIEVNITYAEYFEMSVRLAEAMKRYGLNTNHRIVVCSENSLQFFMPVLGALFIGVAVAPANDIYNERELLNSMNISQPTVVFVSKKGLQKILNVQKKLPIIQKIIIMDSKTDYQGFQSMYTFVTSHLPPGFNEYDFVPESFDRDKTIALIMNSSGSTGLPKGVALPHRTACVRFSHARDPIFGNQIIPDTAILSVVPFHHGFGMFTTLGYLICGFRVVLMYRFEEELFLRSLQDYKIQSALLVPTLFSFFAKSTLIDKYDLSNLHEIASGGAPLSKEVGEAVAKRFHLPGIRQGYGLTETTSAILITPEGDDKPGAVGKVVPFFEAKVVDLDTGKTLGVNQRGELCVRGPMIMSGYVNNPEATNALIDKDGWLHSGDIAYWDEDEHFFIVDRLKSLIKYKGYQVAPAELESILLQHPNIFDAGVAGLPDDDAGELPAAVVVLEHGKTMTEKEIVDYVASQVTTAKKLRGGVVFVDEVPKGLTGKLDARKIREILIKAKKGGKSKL
Chain of Large T antigen (P03070 whole entry): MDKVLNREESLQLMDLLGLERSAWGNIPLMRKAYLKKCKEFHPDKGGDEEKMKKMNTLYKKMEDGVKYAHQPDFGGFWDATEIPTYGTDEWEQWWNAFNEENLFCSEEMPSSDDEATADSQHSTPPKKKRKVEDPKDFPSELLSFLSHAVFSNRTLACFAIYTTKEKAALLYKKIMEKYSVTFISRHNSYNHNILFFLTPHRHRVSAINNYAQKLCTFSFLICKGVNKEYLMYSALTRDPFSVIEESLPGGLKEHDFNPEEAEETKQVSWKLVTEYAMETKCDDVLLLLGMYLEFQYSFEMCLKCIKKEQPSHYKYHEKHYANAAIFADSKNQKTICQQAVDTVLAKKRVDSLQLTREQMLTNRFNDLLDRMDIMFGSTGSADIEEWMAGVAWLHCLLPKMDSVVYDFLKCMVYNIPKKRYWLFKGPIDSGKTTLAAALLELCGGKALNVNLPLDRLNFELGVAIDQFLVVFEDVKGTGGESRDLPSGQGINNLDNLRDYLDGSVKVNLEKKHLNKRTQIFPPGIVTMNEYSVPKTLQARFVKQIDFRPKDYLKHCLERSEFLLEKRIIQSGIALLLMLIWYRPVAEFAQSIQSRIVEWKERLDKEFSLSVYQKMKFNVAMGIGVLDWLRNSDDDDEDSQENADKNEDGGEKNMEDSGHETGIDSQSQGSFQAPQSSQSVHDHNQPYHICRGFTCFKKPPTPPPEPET
Chain of Aryl hydrocarbon receptor (P35869 whole entry): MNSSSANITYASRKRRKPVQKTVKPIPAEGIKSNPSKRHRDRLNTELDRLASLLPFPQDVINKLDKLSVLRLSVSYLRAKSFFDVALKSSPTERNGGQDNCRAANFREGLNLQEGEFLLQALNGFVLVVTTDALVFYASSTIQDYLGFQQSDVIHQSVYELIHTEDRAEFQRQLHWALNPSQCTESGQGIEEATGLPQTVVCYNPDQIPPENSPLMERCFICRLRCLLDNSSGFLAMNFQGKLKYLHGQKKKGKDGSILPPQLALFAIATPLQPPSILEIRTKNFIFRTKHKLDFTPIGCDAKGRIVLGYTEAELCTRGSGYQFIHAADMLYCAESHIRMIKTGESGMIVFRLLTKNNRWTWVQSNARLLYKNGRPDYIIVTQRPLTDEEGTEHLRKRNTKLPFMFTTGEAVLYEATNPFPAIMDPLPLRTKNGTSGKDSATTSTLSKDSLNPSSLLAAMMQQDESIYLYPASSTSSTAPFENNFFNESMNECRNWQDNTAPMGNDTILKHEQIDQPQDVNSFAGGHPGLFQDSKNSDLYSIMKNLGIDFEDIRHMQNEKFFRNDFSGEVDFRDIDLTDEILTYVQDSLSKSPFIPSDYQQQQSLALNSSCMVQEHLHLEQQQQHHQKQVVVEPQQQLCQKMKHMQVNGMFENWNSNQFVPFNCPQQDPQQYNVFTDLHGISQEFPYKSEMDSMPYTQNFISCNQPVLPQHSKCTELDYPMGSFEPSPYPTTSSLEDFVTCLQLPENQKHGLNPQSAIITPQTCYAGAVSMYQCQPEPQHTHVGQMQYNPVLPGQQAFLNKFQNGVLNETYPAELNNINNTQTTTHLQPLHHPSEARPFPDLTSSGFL

COc1ccc(N2CCN(c3cc(C)c4ccc(O)cc4n3)CC2)cc1
EC50 [1]: > 50 µM (active) | EC50 [2]: 3.47 µM (active)

COC(=O)CS(=O)(=O)c1ccc2c(c1)CC(=O)N2
EC50 [3]: > 112 µM (not active) | EC50 [4]: 1.45 µM (active) | EC50 [5]: < 1 µM (active)

CCCC(=O)Nc1ccc2c(c1)OC[C@@H](C)N(Cc1ccccc1F)C[C@@H](C)[C@H](OC)CN(C)C2=O
AC50 [6]: 4.01 µM (active) | AC50 [7]: 0.841 µM (active) | AC50 [8]: 0.34 µM (active) | AC50 [9]: 1.78 µM (active) | AC50 [10]: 1.33 µM (active)

COc1ccc(-n2nnc3c(SCC(=O)Nc4ccc5c(c4)OCCO5)ncnc32)cc1
EC50 [11]: 7.96 µM (active) | EC50 [12]: 8.32 µM (active)

N#Cc1c(N)oc(-c2ccc3c(c2)OCO3)c1-c1ccc2c(c1)OCO2
IC50 [13]: > 50 µM (not active) | IC50 [14]: > 100 µM (inactive)

Oc1cnn(-c2ccccc2)c1
IC50 [15]: > 100 µM (active) | IC50 [16]: 4.71 µM (active) | AC50 [17]: 12.7 µM (active) | EC50 [18]: 1.1 µM (active)

COc1ccc(OC(=O)N(CC(=O)O)Cc2ccc(OCCc3nc(-c4ccccc4)oc3C)cc2)cc1 [MURAGLITAZAR]
IC50 [19]: 1.54 µM (active) | IC50 [20]: 36.2 µM (inactive)

CO[C@@H]1CN(C)C(=O)c2ccc(NC(=O)Nc3ccccc3F)cc2OC[C@@H](C)N(CC2CC2)C[C@H]1C
AC50 [6]: 6.67 µM (active) | AC50 [21]: > 100 µM (inactive) | AC50 [22]: 0.799 µM (active) | AC50 [7]: 0.399 µM (active) | AC50 [8]: 0.0955 µM (active) | AC50 [9]: 3.04 µM (active) | AC50 [10]: 0.961 µM (active)
